According to patent US6046218A, “Pyridine derivative and medicament containing the same as an effective ingredient” (SS Pharmaceutical Co., Ltd., priority 1996, dated 2000):
Counter-ions that a name gives are not always drawn.

How the values were obtained:
Format in all cases: cell-based
[1] = test system: IL-4 production; assay: Test 2: inhibition of IL-4 production in human T-cell strain ATL-16T(-) stimulated with PMA (Bio Source EIA); conditions: ATL-16T(-) 5×10^5 cells/0.5 ml/well, 20 nM PMA, 48 hours, read-out: Inhibition rate of IL-4 production; for inhibition at 10 µM: 10^-5 M; for inhibition at 1 µM: 10^-6 M; for inhibition at 0.1 µM: 10^-7 M; for inhibition at 0.01 µM: 10^-8 M
Procedure: Test 2: Test on the inhibition of IL-4 production
(§1) Into individual wells of a 48-well microplate, the human T-cell strain ATL-16T(-) was poured at a concentration of 5×10^5 cells/0.5 ml/well (n=3), followed by the addition of a stimulator (20 nM of PMA) and a medicament at the same time. The resulting mixture was incubated in 5% CO2 at 37° C. for 48 hours. After incubation, 50 μl of the supernatant were collected and subjected to measurement by a human IL-4 EIA kit (BIO SOURCE, INC.). The inhibition rate was calculated according to the following formula. [formula]

[2] = test system: IL-5 production; assay: Test 3: inhibition of IL-5 production in human PBMC stimulated with ConA; conditions: 10^-6 M, 10 μg/ml ConA, 48 hours, read-out: Inhibition rate of IL-5 production
Procedure: Test 3: Test on the inhibition of IL-5 production
The peripheral blood was collected from a normal volunteer and peripheral blood mononuclear cells (PBMC) of the human peripheral blood were separated therefrom by the specific gravity centrifugation method. They were suspended in an AIM-V medium and their cell count was adjusted. To individual wells of a 96-well incubation plate, 1×10^6 cells/ml of PBMC were poured, followed by the addition of a stimulator (10 μg/ml of ConA) and a medicament. The resulting mixture was incubated in 5% CO2 at 37° C. for 48 hours. After incubation, 50 μl of the supernatant were collected and subjected to measurement by a human IL-5 EIA kit (BIO SOURCE, INC.). The inhibition rate was calculated according to the following formula. [formula]

[3] = test system: IL-4 production; assay: Test 1: inhibition of IL-4 production in human T-cell strain ATL-16T(-) stimulated with PMA (R&D Systems EIA); conditions: ATL-16T(-) 1×10^6 cells/0.5 ml/well, 20 nM PMA, 48 hours, read-out: Inhibition rate of IL-4 production; for inhibition at 10 µM: 10^-5 M; for inhibition at 1 µM: 10^-6 M; for inhibition at 0.1 µM: 10^-7 M; for inhibition at 0.01 µM: 10^-8 M
Procedure: Test 1: Test on the inhibition of IL-4 production
as §1, with “1×10^6” for “5×10^5”, “100” for “50”, “(R&D SYSTEMS,” for “(BIO SOURCE,”

SMILES: CCOC(=O)CCCOc1cc(/C=C/C(=O)c2ccccn2)ncc1OC [Ex. 70, Ethyl 4-[5-methoxy-2-(3-oxo-3-(2-pyridyl)-1-propenyl]-4-pyridyloxy]butanoate dih ydrochloride]
- inhibition at 10 µM [1]: 65.7%
- inhibition at 1 µM [1]: 64.3%
- inhibition at 0.1 µM [1]: 64%
- inhibition at 0.01 µM [1]: 60%
- inhibition at 1 µM [2]: 81.4%

SMILES: COc1cnc(/C=C/C(=O)c2ccc(Cl)cc2Cl)cc1OC [Ex. 53, 4,5-Dimethoxy-2-[3-(2,4-dichlorophenyl)-3-oxo-1-propenyl]pyridine]
- inhibition at 10 µM [1]: 105%
- inhibition at 1 µM [1]: 103%
- inhibition at 0.1 µM [1]: 16.7%
- inhibition at 0.01 µM [1]: 23.1%
- inhibition at 1 µM [2]: 75%

SMILES: COc1cc(/C=C/C(=O)c2ccccc2)ncc1O [Ex. 21, 5-hydroxy-4-methoxy-2-(3-oxo-3-phenyl-1-propenyl)pyridine]
- inhibition at 10 µM [3]: 97.3%
- inhibition at 1 µM [3]: 90.3%
- inhibition at 0.1 µM [3]: 80.1%
- inhibition at 0.01 µM [3]: 72.5%
- inhibition at 1 µM [2]: 67.3%

SMILES: CCCCOc1cc(/C=C/C(=O)c2ccccc2)ncc1OC [Ex. 46, 4-Butoxy-5-methoxy-2-(3-oxo-3-phenyl-1-propenyl)pyridine]
- inhibition at 10 µM [3]: 76.6%
- inhibition at 1 µM [3]: 69.1%
- inhibition at 0.1 µM [3]: 33.8%
- inhibition at 0.01 µM [3]: 11.8%
- inhibition at 1 µM [2]: 86.9%

SMILES: COc1cnc(/C=C/C(=O)c2ccccc2)cc1OCCCC(=O)O [Ex. 33, 4-[5-methoxy-2-(3-oxo-3-phenyl-1-propenyl)-4-pyridyloxy]butanoic acid]
- inhibition at 10 µM [3]: 107%
- inhibition at 1 µM [3]: 93.9%
- inhibition at 0.1 µM [3]: 90%
- inhibition at 0.01 µM [3]: 86.1%
- inhibition at 1 µM [2]: 72.1%

SMILES: CCCCCC(=O)/C=C/c1cc(O)c(O)cn1 [Ex. 22, 4,5-Dihydroxy-2-(3-oxo-1-octenyl)pyridine]
- inhibition at 10 µM [3]: 111%
- inhibition at 1 µM [3]: 75.5%
- inhibition at 0.1 µM [3]: 67.6%
- inhibition at 0.01 µM [3]: 50%
- inhibition at 1 µM [2]: 80.9%

SMILES: COc1cnc(/C=C/C(=O)c2ccccc2)cc1OC(C)=O [Ex. 7, 4-Acetoxy-5-methoxy-2-(3-oxo-3-phenyl-1-propenyl)pyridine]
- inhibition at 10 µM [3]: 91.8%
- inhibition at 1 µM [3]: 79.8%
- inhibition at 0.1 µM [3]: 76.4%
- inhibition at 0.01 µM [3]: 63.9%
- inhibition at 1 µM [2]: 94.2%

SMILES: CC(=O)Oc1cnc(/C=C/C(=O)c2ccccc2)cc1OC(C)=O [Ex. 8, 4,5-Diacetoxy-2-(3-oxo-3-phenyl-1-propenyl)pyridine]
- inhibition at 10 µM [3]: 94.3%
- inhibition at 1 µM [3]: 88%
- inhibition at 0.1 µM [3]: 76.2%
- inhibition at 0.01 µM [3]: 60.2%
- inhibition at 1 µM [2]: 75.3%

SMILES: COC(=O)CCCOc1cnc(/C=C/C(=O)C2CCCC2)cc1OC [Ex. 18, Methyl 4-[4-methoxy-2-(3-cyclopentyl-3-oxo-1-propenyl)-5-pyridyloxy]butanoate]
- inhibition at 10 µM [3]: 88.2%
- inhibition at 1 µM [3]: 78.3%
- inhibition at 0.1 µM [3]: 67.8%
- inhibition at 0.01 µM [3]: 34.8%
- inhibition at 1 µM [2]: 96.9%

SMILES: CCCCCC(=O)/C=C/c1cc(OC(C)=O)c(OC(C)=O)cn1 [Ex. 11, 4,5-diacetoxy-2-(3-oxo-1-octenyl)pyridine]
- inhibition at 10 µM [3]: 94.1%
- inhibition at 1 µM [3]: 87.2%
- inhibition at 0.1 µM [3]: 79.6%
- inhibition at 0.01 µM [3]: 78.9%
- inhibition at 1 µM [2]: 77.3%

SMILES: COc1cnc(/C=C/C(=O)C2CCCC2)cc1OC1CCCC1 [Ex. 10, 2-(3-Cyclopentyl-3-oxo-1-propenyl)-4-cyclopentyloxy-5-methoxypyridine]
- inhibition at 10 µM [3]: 93.6%
- inhibition at 1 µM [3]: 83.5%
- inhibition at 0.1 µM [3]: 83.2%
- inhibition at 0.01 µM [3]: 47.8%
- inhibition at 1 µM [2]: 62.9%

SMILES: COc1cc(/C=C/C(=O)c2ccccc2)ncc1OC(C)=O [Ex. 6, 5-Acetoxy-4-methoxy-2-(3-oxo-3-phenyl-1-propenyl)pyridine]
- inhibition at 10 µM [3]: 102%
- inhibition at 1 µM [3]: 86.1%
- inhibition at 0.1 µM [3]: 75.2%
- inhibition at 0.01 µM [3]: 58.8%
- inhibition at 1 µM [2]: 67%

SMILES: COc1cnc(/C=C/C(=O)c2ccccc2)cc1OC1CCCC1 [Ex. 2, 4-Cyclopentyloxy-5-methoxy-2-(3-oxo-3-phenyl-1-propenyl)pyridine]
- inhibition at 10 µM [3]: 113%
- inhibition at 1 µM [3]: 103%
- inhibition at 0.1 µM [3]: 93.5%
- inhibition at 0.01 µM [3]: 82.8%
- inhibition at 1 µM [2]: 93.4%

SMILES: COc1cc(/C=C/C(=O)C2CCCC2)ncc1OCCCCCC(=O)O [Ex. 38, 6-[2-(3-Cyclopentyl-3-oxo-1-propenyl)-4-methoxy-5-pyridyloxy]hexanoic acid hydrochloride]
- inhibition at 10 µM [3]: 76.3%
- inhibition at 1 µM [3]: 68.9%
- inhibition at 0.1 µM [3]: 59%
- inhibition at 0.01 µM [3]: 42.4%
- inhibition at 1 µM [2]: 88.7%

SMILES: COCCOCOc1cc(/C=C/C(=O)c2ccccc2)ncc1OC [Ex. 48, 5-Methoxy-4-methoxyethoxymethoxy-2-(3-oxo-3-phenyl-1-propenyl)pyridine]
- inhibition at 10 µM [3]: 111%
- inhibition at 1 µM [3]: 74.7%
- inhibition at 0.1 µM [3]: 50.1%
- inhibition at 0.01 µM [3]: 7.6%
- inhibition at 1 µM [2]: 62.2%

SMILES: COC(=O)CCCCCOc1cnc(/C=C/C(=O)C2CCCC2)cc1OC [Ex. 17, Methyl 6-[4-methoxy-2-(3-cyclopentyl-3-oxo-1-propenyl)-5-pyridyloxy]hexanoate]
- inhibition at 10 µM [3]: 111%
- inhibition at 1 µM [3]: 92.8%
- inhibition at 0.1 µM [3]: 88.6%
- inhibition at 0.01 µM [3]: 74.7%
- inhibition at 1 µM [2]: 84.3%

SMILES: COc1cnc(/C=C/C(O)c2ccccc2)cc1OC (stereo not drawn) [Ex. 23, 4,5-dimethoxy-2-(3-hydroxy-3-phenyl-1-propenyl)pyridine]
- inhibition at 10 µM [3]: 88%
- inhibition at 1 µM [3]: 80.7%
- inhibition at 0.1 µM [3]: 64.9%
- inhibition at 0.01 µM [3]: 64.7%
- inhibition at 1 µM [2]: 96.3%

SMILES: COc1cnc(/C=C/C(=O)c2ccccc2)cc1OCC(=O)c1ccccc1 [Ex. 47, 5-Methoxy-4-(2-oxo-2-phenylethoxy)-2-(3-oxo-3-phenyl-1-propenyl)pyridine]
- inhibition at 10 µM [3]: 113%
- inhibition at 1 µM [3]: 89.6%
- inhibition at 0.1 µM [3]: 74.1%
- inhibition at 0.01 µM [3]: 58.9%
- inhibition at 1 µM [2]: 67.2%

SMILES: COc1cc(/C=C/C(O)C2CCCC2)ncc1OCCCCCC(=O)O (stereo not drawn) [Ex. 36, 6-[2-(3-Cyclopentyl-3-hydroxy-1-propenyl)-4-methoxy-5-pyridyloxy]hexanoic acid hydrochloride]
- inhibition at 10 µM [3]: 85.1%
- inhibition at 1 µM [3]: 78.9%
- inhibition at 0.1 µM [3]: 68.6%
- inhibition at 0.01 µM [3]: 37.6%
- inhibition at 1 µM [2]: 86.5%

SMILES: CCOC(=O)COc1cc(/C=C/C(=O)c2ccccc2)ncc1OC [Ex. 45]
- inhibition at 10 µM [3]: 89.5%
- inhibition at 1 µM [3]: 86.4%
- inhibition at 0.1 µM [3]: 80.1%
- inhibition at 0.01 µM [3]: 74%
- inhibition at 1 µM [2]: 64.3%

SMILES: COc1cnc(/C=C/C(=O)c2ccccc2)cc1OC(=O)c1ccccc1 [Ex. 43, 4-benzoyloxy-5-methoxy-2-(3-oxo-3-phenyl-1-propenyl)pyridine]
- inhibition at 10 µM [3]: 80.8%
- inhibition at 1 µM [3]: 72.6%
- inhibition at 0.1 µM [3]: 70.3%
- inhibition at 0.01 µM [3]: 35.5%
- inhibition at 1 µM [2]: 61.4%

SMILES: COc1cnc(/C=C/C(=O)c2ccccc2)cc1OCc1ccccc1 [Ex. 3, 4-Benzyloxy-5-methoxy-2-(3-oxo-3-phenyl-1-propenyl)pyridine]
- inhibition at 10 µM [3]: 98.9%
- inhibition at 1 µM [3]: 81.1%
- inhibition at 0.1 µM [3]: 75.9%
- inhibition at 0.01 µM [3]: 60%
- inhibition at 1 µM [2]: 65.8%

SMILES: CCOC(=O)CCCCCOc1cc(/C=C/C(=O)c2ccccc2)ncc1OC [Ex. 12, Ethyl 6-[5-methoxy-2-(3-oxo-3-phenyl-1-propenyl)-4-pyridyloxy]hexanoate]
- inhibition at 10 µM [3]: 78.6%
- inhibition at 1 µM [3]: 61.6%
- inhibition at 0.1 µM [3]: 52.9%
- inhibition at 0.01 µM [3]: 43%
- inhibition at 1 µM [2]: 72.4%

SMILES: CCCCCC(=O)/C=C/c1cc(OC2CCCC2)c(OC)cn1 [Ex. 9, 4-Cyclopentyloxy-5-methoxy-2-(3-oxo-1-octenyl)pyridine]
- inhibition at 10 µM [3]: 94.6%
- inhibition at 1 µM [3]: 92.7%
- inhibition at 0.1 µM [3]: 86.5%
- inhibition at 0.01 µM [3]: 70.7%
- inhibition at 1 µM [2]: 82.5%
